Data set [1] deals with UT7/EPO cells. In words: Calcein-AM release assay, EPO-deprived UT7/EPO cells. The data set is classed as cell-based. The settings on record: Isatin treatment. Here is the method:
Calcein-AM was purchased from Molecular Probes (Eugene) as a 1 mg/ml solution in dry dimethyl sulfoxide. UT7/EPO cells were resuspended in complete medium at a final concentration of 10^6/ml and incubated with 15 uM calcein-AM for 30 mininutes at 37° C. with occasional shaking. After two washes in the same way as the ^51Cr assay in V bottom 96-well microtiter plates, with E:T ratios ranging from 50:1 to 0.5:1, in triplicate, and with at least six replicate wells for spontaneous and maximum release. Various numbers of UT7/EPO cells treated with Isatin or EPO or with untreated cells were seeded as follows. After incubation 37° C. in 5% CO2 for 4 hours, 75 ul of each supernatant was harvested and transferred into new plates. The samples were measured using a Sepctramax Gemini dual-scanning microplate spectrofluoimeter. Data were expressed as arbitrary fluorescent unites (AFU). Percent lysis was calculated with the same formula used for the ^51Cr for the ^51CR assay.

In the next data set the test system is RPM18226 cells. In words: Melphalan-induced apoptosis in RPM18226 cells. The data set is classed as cell-based. The settings on record: data not shown.
The subject of data set [2] is UT7/EPO cells. In words: DNA Ladder Detection Assay, EPO-deprived UT7/EPO cells. The data set is classed as cell-based. The settings on record: Isatin treatment. On the procedure: 10^6 UT7/EPO cells, after treated with either Isatin or EPO or PBS, was lysed with 150 ul hypotonic lysis buffer (10 mM EDTA, 0.5% Triton X-100 in […] Tris-HCl, pH 7.4) for 15 minutes on ice and were precipitated with 2.5% polyethylene glycerol and 1 M NaCl for 15 minutes at 4 C. After centrifugation at 16,000 rpm for 10 minutes at room temperature, the supernatant was incubated in the presence of proteinase K (0.3 g/L) at 37° C. for one hour and precipitated with isopropanol at −20° C. After centrifugation, each cell pellet was dissolved in 10 ul of Tris-EDTA (pH 7.6) and electrophoresed on a 1.5% agarose gell containing ethidium bromide. Ladder formation of oligonucleosomal DNA was detected under ultraviolet.

The test system of another data set is JAK2-associated EPOR. Briefly: Immunoprecipitate study of phosphorylation of JAK2-associated EPOR in UT7/EPO cells. The data set is classed as cell-based. Here is the method:
Referring to FIG. 5B, the Isatin-induced EPO-R phosphorylation occurs 5 minutes after the treatment and sustains beyond 1 hour afterwards.

Data set [3] relates to UT7/EPO cells. Briefly: MTT assay, EPO-deprived UT7/EPO cells. The format is cell-based. The settings on record: Isatin treatment. Here is the method: UT7/EPO cells were cultured for 4 hours and then placed in triplicate in 96 well microtiter plates. The cell was treated with Isatin or EPO or PBS and cultured in 100 ul of DMEM, 10% FCS, overnight. The next day, media was removed and replace MTT assay solution. The plates were incubated for and addition 48 hours. And then cell viability was determined using a MTT assay, as described by manufacture (Sigma).
For orientation: Tetrazolium assays rely on reduction of a dye to a coloured formazan, in cell work by metabolically active cells.

In data set [4] the test system is UT7/EPO cells. Briefly: Viable cell counts (trypan blue staining), EPO-deprived UT7/EPO cells. The format is cell-based. The settings on record: Isatin treatment.
The test system of data set [5] is freshly isolated peripheral blood mononuclear cells. In words: Melphalan-induced apoptosis in peripheral blood mononuclear cells. The format is cell-based. The settings on record: data not shown.
The subject of another data set is MO7E cells. In words: Apoptosis Assay (AA), GM-CSF-deprived MO7E cells. The data set is classed as cell-based. The settings on record: FIG. 4.
The test system of another data set is STAT5. Briefly: Immunoprecipitate analysis of STAT5 phosphorylation in UT7/EPO cells. The format is cell-based. The settings on record: FIG. 6. The source says:
FIG. 6 illustrates the results of Immunoprecipiate analysis of the effects of EPO and Isatin on STAT5 phosphorylation in UT7/EPO Cells.
Activation of EPO-R by EPO is predominately mediated by JAK signaling pathway, and STAT5 protein is the major component involving in this signal transduction. We studied the activity of STAT5 in response to Isatin treatment.

Data set [6] deals with UT7/EPO cells. In words: Apoptosis Assay (AA), EPO-deprived UT7/EPO cells. The data set is classed as cell-based. On the procedure:
UT7/EPO cells treated by Isatin or EPO or PBS was plated in triplicate in 96-well microtiter plates in 50 μl of culture medium and incubated for different time course. The cell apoptosis products were determined by Florence-probe. The cell apoptosis rate was calculated by positive apoptosis fragments.
We used several assays as mentioned in Materials and Methods section to evaluate the pharmacological activity of Isatin compound by examining the growth or the apoptosis of UT7/EPO cells. The cells used in AA assay are UT7/EPO. UT7/EPO cells were deprived from UT7 by elegant genetic engineering. As a result, the survival and growth of UT7/EPO cells rely on the stimulation of EPO-R by the exogenous EPO treatment. On the other hand, without the support of the exogenous EPO, the UT7/EPO cells will die. […] We used different assays to measure the level of apoptosis in UT7/EPO cells. If the tested compounds have erythropoietic agonist effect, the level of apoptosis in UT7/EPO cells should decrease in response to the treatment. […] Compared to EPO, higher dose of Isatin was required to generate the same extent of inhibition.

For data set [7] the following is noted: initial phase of therapy; cited from earlier work.
For data set [8] the following is noted: refrigerator between 2° C. and 8° C.; cited from earlier work.

These results are taken from patent US20060229354A1, “Use of Isatin in stimulating red blood cell production and treatment of anemia” (priority 2005, published 2006).

Regarding `O=C1Nc2ccccc2C1=O` [Isatin, Indole-2,3-dione], in the data set with UT7/EPO cells [1], the “Calcein (cell viability)” value is on record as “↑”. Besides, the “inhibition of Melphalan-induced apoptosis in RPM18226 cells” value with RPM18226 cells is “no noted inhibition”. The “DNA Ladder Assay” value in the data set on UT7/EPO cells [2] is reported as “↓”. Besides, in the data set on JAK2-associated EPOR (FIG. 5B), the “duration of EPO-R phosphorylation after treatment” value is above 1 h and the “time of onset of EPO-R phosphorylation after treatment” value stood at 5 min. Further, the “phosphorylation of EPO-R through JAK2 mediated signaling pathway” value in the data set with JAK2-associated EPOR (FIGS. 5A and 5B) is reported as “induces phosphorylation of EPO-R”. In the data set on JAK2-associated EPOR (Isatin together with EPO), the “phosphorylation of EPO-R, Isatin used together with EPO” value is reported as “significantly enhance the phosphorylation of EPO-R”. Further, in the data set on UT7/EPO cells [3], the “MTT (cell viability)” value is “↑”. Besides, the “Viable Cell Counts (trypan blue staining)” value in the data set with UT7/EPO cells [4] is “↑”. In data set [5], the “inhibition of Melphalan-induced apoptosis in freshly isolated peripheral blood mononuclear cells” value is “no noted inhibition”. Also, the “inhibition of GM-CSF withdrawal-induced apoptosis in MO7E cells” value with MO7E cells is “no noted inhibition”. The “STAT5 activity (phosphorylation) during treatment” value in the data set on STAT5 was “no change in STAT5 activity”. Besides, the IC50 in the data set on UT7/EPO cells [6] (Homo sapiens, UT-7/Epo, read-out: IC50 for inhibiting apoptosis in UT7/EPO cells) is around 10 µM. In addition, the “effect of Isatin used together with EPO on apoptosis inhibition / EPO-R activity” value with UT7/EPO cells [6] (Isatin together with EPO, UT7/EPO cells, FIG. 3) is “synergistic effect”. The “AA (apoptosis)” value with UT7/EPO cells [6] (Isatin treatment, EPO-deprived UT7/EPO cells) is recorded as “↓”. Further, in the data set with UT7/EPO cells [6] (UT7/EPO cells, comparison with EPO), the “erythropoietic stimulation effect compared with EPO” value is on record as “weaker than that of EPO”. Besides, the “apoptosis inhibition on UT7/EPO cells, concentration dependence” value in the data set on UT7/EPO cells [6] (increasing Isatin concentration, FIGS. 2A and 2B) is listed as “steadily enhanced when the concentration of Isatin was increased”.
“Epoetin alfa: recombinant EPO protein developed by Amgen, approved by FDA for the treatment of anemia”: in [7], the “increase in the hematocrit” value is recorded as 2 % per week. Also, the “shelf life of multi-dose vials in refrigerator after the initial dose” value in data set [8] was “about 20 days”.
